Reference: patent US4180578A, “2,4-Diamino-5-(4'-methylthio)benzylpyrimidenes, compounds, compositions and method of use” (Ludwig Heumann, & Co. GmbH, priority 1977, dated 1979)
Values after ≈ are worked out from the molar mass of the structure shown.

What was measured:
in vivo = conditions: po, mouse, intragastral, safety limits p = 0.05 printed for TMP: lower 2105.5, upper 3629.8
From the text: 2,4-diamino-5-(3',5'-dimethoxy-4'-S-methyl)-
benzylpyrimidine (mouse, intragastral administration) (determined
according to J.T. Litchfield and F. Wilcoxon in "J. Pharmacol.

Serum level, rat = format: in vivo; conditions: po, 50 mg/kg i.g.
Experimental: |Serum level, rat (50 mg/kg i.g.)

E. Coli = experiment: MIC, serial dilution test, DST-Agar; format: cell-based; conditions: Escherichia coli, n = 15, DST-Agar, read-out: Geometrical mean value of MIC
From the text: (§1) MIC values in μg/ml (serial dilution test, DST-Agar)
(§2) Geometrical mean value of MIC in μg/ml

Klebsiellae = experiment: MIC, serial dilution test, DST-Agar; format: cell-based; conditions: n = 3, DST-Agar, read-out: Geometrical mean value of MIC
From the text: as §1, §2

Proteus = experiment: MIC, serial dilution test, DST-Agar; format: cell-based; conditions: n = 3, DST-Agar, read-out: Geometrical mean value of MIC
From the text: as §1, §2

Enterococcus = experiment: MIC, serial dilution test, DST-Agar; format: cell-based; conditions: n = 2, DST-Agar, read-out: Geometrical mean value of MIC
From the text: as §1, §2

`COc1cc(Cc2cnc(N)nc2N)cc(OC)c1SC` [2,4-diamino-5-(3',5-dimethoxy-4'-methylthio)-benzylpyrimidine] showed an LD50 (in vivo) greater than 5000 mg/kg, a concentration at 0.5 h (Serum level, rat) of 5000 ng/mL and a concentration at 1 h (Serum level, rat) of 2700 ng/mL. For the same molecule, the MIC (E. Coli) was 0.142 µg/mL (≈ 0.463 µM), the MIC (Klebsiellae) was 0.248 µg/mL (≈ 0.809 µM) and the MIC (Proteus) was 0.992 µg/mL (≈ 3.24 µM). For the same molecule, the MIC (Enterococcus) was 0.156 µg/mL (≈ 0.509 µM).

Molecule `COc1cc(Cc2cnc(N)nc2N)cc(OC)c1OC` [TMP, 2,4-diamino-5-(3'4',5'-trimethoxybenzyl)-pyrimidine] has an LD50 (in vivo) of 2760 mg/kg, a concentration at 0.5 h (Serum level, rat) of 4500 ng/mL and a concentration at 1 h (Serum level, rat) of 3300 ng/mL. For the same molecule, the MIC (E. Coli) was 0.108 µg/mL (≈ 0.372 µM), the MIC (Klebsiellae) was 0.496 µg/mL (≈ 1.71 µM) and the MIC (Proteus) was 0.625 µg/mL (≈ 2.15 µM). For the same molecule, the MIC (Enterococcus) was 0.078 µg/mL (≈ 0.269 µM).
